Results from patent publication US20060093561A1, “Method of treating microorganisms in the oral cavity” (priority 2004, published 2006).

What was measured:
P. intermedia = assay: Photodynamic therapy assay after serum washout of bacteria; type: cell-based, Prevotella intermedia 25611; conditions: xenon lamp 10 J/cm^2, 100 mW/cm^2, 12.5 μg/ml TBO
Source text: (§1) The following bacteria were used in these experiments and cultivated in an anaerobic chamber (available commercially from Coy Manufacturing Co.; AnnArbor, Mich., USA): Porphyromonas gingivalis 381; Prevotella intermedia 25611; Actinobacillus actinomycetemcomitans UT32; Fusobacterium nucleatum 1213; Bacteroides forsythus 43037. P. gingivalis and P. intermedia strains were subcultured weekly in Todd Hewitt Broth (available commercially from Fisher Scientific; Nepean, Ontario, Canada; hereinafter referred to as Fisher) supplemented with 5 μg/ml hemin (Sigma-Aldrich Co.; Oakville, Ontario, Canada; hereinafter referred to as Sigma) and 1 μg/ml menadione (Sigma). A. actinomycetemcomitans was subcultured in Tryptic Soy Broth (Fisher) containing 6 g/l yeast extract (Fisher) and 8 ml of 1.5% sodium bicarbonate, filter sterilized (Fisher). F. nucleatum was subcultured in Todd Hewitt Broth. […]
(§2) Prior to light irradiation, 75 μl of calibrated bacterial suspension (7.5×10^8 cfu) was mixed with 75 μl of TBO stock solution (100 μg/ml) in a sterile tube, for a final mixture concentration of 5×10^9 cfu/ml and 50 μg/ml TBO. […] Colony counts determined the number of bacterial survivors and they were expressed as cfu/ml. […]

B. forsythus = assay: as above; type: cell-based, Bacteroides forsythus 43037; conditions: xenon lamp 10 J/cm^2, 100 mW/cm^2, 12.5 μg/ml TBO
Source text: as §1, §2

A. actinomycetemcomitans = assay: as above; type: cell-based, Actinobacillus actinomycetemcomitans UT32; conditions: xenon lamp 10 J/cm^2, 100 mW/cm^2, 12.5 μg/ml TBO
Source text: as §1, §2

P. gingivalis [1] = assay: Photodynamic therapy assay, bacteria suspended in PBS; type: cell-based, Porphyromonas gingivalis 381; conditions: for killing of P. gingivalis: light dose 2.2 J/cm^2, 50 μg/ml TBO, 5 min incubation
Source text: The following bacteria were used in these experiments and cultivated in an anaerobic chamber (available commercially from Coy Manufacturing Co.; AnnArbor, Mich., USA): Porphyromonas gingivalis 381; Prevotella intermedia 25611; Actinobacillus actinomycetemcomitans UT32; Fusobacterium nucleatum 1213; Bacteroides forsythus 43037. P. gingivalis and P. intermedia strains were subcultured weekly in Todd Hewitt Broth (available commercially from Fisher Scientific; Nepean, Ontario, Canada; hereinafter referred to as Fisher) supplemented with 5 μg/ml hemin (Sigma-Aldrich Co.; Oakville, Ontario, Canada; hereinafter referred to as Sigma) and 1 μg/ml menadione (Sigma). A. actinomycetemcomitans was subcultured in Tryptic Soy Broth (Fisher) containing 6 g/l yeast extract (Fisher) and 8 ml of 1.5% sodium bicarbonate, filter sterilized (Fisher). F. nucleatum was subcultured in Todd Hewitt Broth. B. forsythus was subcultured in Brain Heart Infusion Broth (95 ml) (Fisher) supplemented with 0.001 g N-acetylmuramic acid (Sigma) in 5 ml Horse Serum (Cedarlane Laboratories; Hornby, Ontario, Canada), filter sterilized. Prior to experiments, a fresh broth tube was inoculated and allowed to grow overnight at 37° C. in the anaerobic chamber.
A 100 Watt red-filtered xenon fibre optic light source having a bandwidth of 620-640 nm (available commercially from EXFO, Inc.; Mississauga, Ontario, Canada) was used in these experiments. […] Light dose for each source was calculated by the cross product of the TBO absorption spectrum and light spectrum.
(§3) The photosensitizer TBO (Sigma) was dissolved in Dulbecco's Phosphate Buffered Saline (PBS) (Sigma) to a concentration of 1 mg/ml under ambient light. […] The stock was diluted to appropriate concentrations with PBS as required.
(§4) An overnight bacterial culture was removed from the anaerobic chamber and centrifuged at 2400×g for 5 minutes in an IEC21000R centrifuge (Fisher). The supernatant was discarded and the pellet washed and resuspended three times in PBS. The bacterial suspension was then adjusted to a working concentration of approximately 10^10 colony forming units (cfu)/ml by measurement of optical density at 600 nm (Pharmacia LKB Ultraspec III). The suspension was returned to the anaerobic chamber and aliquoted in pre-reduced 1.5 ml microfuge tubes (Fisher) in order to decrease oxygen exposure of the anaerobic suspension.
Prior to light irradiation, 75 μl of calibrated bacterial suspension (7.5×10^8 cfu) was mixed with 75 μl of TBO stock solution (100 μg/ml) in a sterile tube, for a final mixture concentration of 5×10^9 cfu/ml and 50 μg/ml TBO. The mixture was then incubated at room temperature for 5 min. in the dark. TBO negative controls were incubated with an equal volume of sterile PBS instead of TBO. The mixture was then added to a sterilized perfusion chamber (Cedarlane Laboratories) mounted on a glass coverslip. The perfusion chamber was 500 μm thick, and so attenuation of the treatment light by the TBO was only 30% at 50 μg/ml. For most treatments at a concentration of 12.5 μg/ml TBO, the attenuation of treatment light was only 9%. The inoculated perfusion chamber was irradiated under the desired conditions with a light beam whose diameter covered the perfusion chamber's transparent surface. Upon completion, the mixture was removed and serially diluted in PBS and each dilution was plated on the following media: for P. gingivalis, P. intermedia, and F. nucleatum, Trypticase Soy Agar (Fisher) supplemented with 5 g/l yeast extract, 5 μg/ml hemin, 1 μg/ml menadione, 50 ml/l defibrinated sheep's blood (Oxoid, Inc.; Nepean, Ontario, Canada); for B. forsythus, Trypticase Soy Agar supplemented with 4 g/L yeast extract, 4 g/L trypticase peptone (Fisher), N-acetymuramic acid (10 mg/ml stock filter sterilized into medium to 10 mg/l); and for A. actinomycetemcomitans, Tryptic Soy Agar. […]

F. nucleatum = assay: Photodynamic therapy assay after serum washout of bacteria; type: cell-based, Fusobacterium nucleatum 1213; conditions: xenon lamp 10 J/cm^2, 100 mW/cm^2, 12.5 μg/ml TBO
Source text: as §1, §2

P. gingivalis [2] = assay: as above; type: cell-based, Porphyromonas gingivalis 381
Procedure: as §4
(§5) Prior to light irradiation, 75 μl of calibrated bacterial suspension (7.5×10^8 cfu) was mixed with 75 μl of TBO stock solution (100 μg/ml) in a sterile tube, for a final mixture concentration of 5×10^9 cfu/ml and 50 μg/ml TBO. The mixture was then incubated at room temperature for 5 min. in the dark. TBO negative controls were incubated with an equal volume of sterile PBS instead of TBO. The mixture was then added to a sterilized perfusion chamber (Cedarlane Laboratories) mounted on a glass coverslip. The perfusion chamber was 500 μm thick, and so attenuation of the treatment light by the TBO was only 30% at 50 μg/ml. […] Colony counts determined the number of bacterial survivors and they were expressed as cfu/ml. […]

[3] = Storage stability of TBO stock solution; type: physicochemical; conditions: 1 mg/ml in PBS, filter sterilized, dark tubes at −20° C., up to 3 months
Procedure: as §3

P. gingivalis [4] = assay: Photodynamic therapy assay, serum and blood bacteria suspensions; type: cell-based, Porphyromonas gingivalis 381
Procedure: as §4
as §5, with “μg/ml. For most treatments at a concentration of 12.5 μg/ml TBO, the attenuation of treatment light was only 9%. The inoculated perfusion chamber was irradiated under the desired conditions with a light beam whose diameter covered the perfusion chamber's transparent surface.” for “μg/ml.”

[5] = xenon lamp 6.3 J/cm^2, 100 mW/cm^2, 12.5 μg/ml TBO

SMILES: Cc1cc2nc3ccc(N(C)C)cc3[s+]c2cc1N [TBO, toluidine blue O]
- P. intermedia kill (P. intermedia): 5.33±0.62 logs
- B. forsythus killing (B. forsythus): 3.92±0.68 logs
- A. actinomycetemcomitans kill (A. actinomycetemcomitans): 5.51±1.34 logs
- increase in bacterial killing, xenon lamp versus He—Ne laser (P. gingivalis [1]; 2.2 J/cm^2, 50 μg/ml TBO): ~10 fold
- reduction in viable bacteria (P. gingivalis [1]; He—Ne laser, 2.2 J/cm^2, 50 μg/ml TBO): approximately 270 ×
- killing of P. gingivalis (P. gingivalis [1]; He—Ne laser): 2.43±0.39 logs
- killing of P. gingivalis (P. gingivalis [1]; red-filtered xenon lamp): 3.34±0.24 logs
- P. gingivalis kill in the absence of serum (P. gingivalis [1]; [5]): 6.02±0.76 logs
- kill of P. gingivalis at each TBO concentration tested (P. gingivalis [1]; xenon lamp 6.3 J/cm^2 and 100 mW/cm^2, each drug concentration incl. 3.125, 6.25 and 12.5 μg/ml): 5 logs
- kill of P. gingivalis (P. gingivalis [1]; xenon lamp 10 mW/cm^2, total light dose 2.2 J/cm^2, 50 μg/ml TBO): 2.12±0.36 logs
- kill of P. gingivalis (P. gingivalis [1]; xenon lamp 25 mW/cm^2, total light dose 2.2 J/cm^2, 50 μg/ml TBO): 3.34±0.41 logs
- bacterial kill of P. gingivalis (P. gingivalis [1]; xenon lamp 100 mW/cm^2, light dose 6.3 J/cm^2, 50 μg/ml TBO): 5 logs
- kill of P. gingivalis (P. gingivalis [1]; xenon lamp 100 mW/cm^2, total light dose 2.2 J/cm^2, 50 μg/ml TBO): 3.41±0.58 logs
- F. nucleatum kill (F. nucleatum): 4.7±0.72 logs
- P. gingivalis killing after serum washout (P. gingivalis [2]; [5]): 4.71±1.07 logs
- P. gingivalis kill after serum washout (P. gingivalis [2]; xenon lamp 10 J/cm^2, 100 mW/cm^2, 12.5 μg/ml TBO): 5.48±0.68 logs
- storage stability of stock solution [3]: without a loss in potency
- P. gingivalis killing with serum (P. gingivalis [4]; FBS 50% (v/v), xenon lamp 6.3 J/cm^2, 100 mW/cm^2, 12.5 μg/ml TBO): 3.05±1.02 logs
- maximum blood resuspended P. gingivalis kill (P. gingivalis [4]; defibrinated sheep's blood, xenon lamp 20 J/cm^2, 100 mW/cm^2, 12.5 μg/ml TBO): 2.85±0.33 logs
- kill of blood suspended P. gingivalis compared to TBO absent controls at higher light doses (P. gingivalis [4]; defibrinated sheep's blood, xenon lamp 100 mW/cm^2, 12.5 μg/ml TBO, light doses above 10 J/cm^2): ~3 log
